Measured values: patent publication US8080688B2, “3, 4-disubstituted phenoxyphenylamidines and use thereof as fungicides” (Bayer Cropscience AG, priority 2007, dated 2011)
Where two headings read alike, the source gives them in different places.

Assay: logP
Type: physicochemical

What does the source list for CCN(C)C=Nc1cc(C)c(Oc2ccc3c(c2)CCCC3)cc1C [Compound 13, N-Ethyl-N-methyl-N′-[4-(5,6,7,8-tetrahydro-2-naphthoxy)-2,5-dimethylphenyl]formamidine]?
logP (acidic, read-out: logP acidic): 2.69; logP (neutral, read-out: logP neutr.): 6.31; logP (pH 2.3, pH 2.3, read-out: log P (pH2.3)): 2.14
